The values that follow are results of earlier work, collected in US8309543B2 (priority 2003, dated 2012).

What is called IC50 is the concentration needed to halve the response being measured.

One data set deals with NaV1.3 (Homo sapiens, UniProt Q9NY46). The note with it: read-out: TTX IC50.
Another data set concerns the target NaV1.8 (Homo sapiens, UniProt Q9Y5Y9). Particulars: read-out: TTX IC50.
For data set [1] the following is noted: in vivo.

NaV1.8, sequence (Q9Y5Y9 whole entry, looked up): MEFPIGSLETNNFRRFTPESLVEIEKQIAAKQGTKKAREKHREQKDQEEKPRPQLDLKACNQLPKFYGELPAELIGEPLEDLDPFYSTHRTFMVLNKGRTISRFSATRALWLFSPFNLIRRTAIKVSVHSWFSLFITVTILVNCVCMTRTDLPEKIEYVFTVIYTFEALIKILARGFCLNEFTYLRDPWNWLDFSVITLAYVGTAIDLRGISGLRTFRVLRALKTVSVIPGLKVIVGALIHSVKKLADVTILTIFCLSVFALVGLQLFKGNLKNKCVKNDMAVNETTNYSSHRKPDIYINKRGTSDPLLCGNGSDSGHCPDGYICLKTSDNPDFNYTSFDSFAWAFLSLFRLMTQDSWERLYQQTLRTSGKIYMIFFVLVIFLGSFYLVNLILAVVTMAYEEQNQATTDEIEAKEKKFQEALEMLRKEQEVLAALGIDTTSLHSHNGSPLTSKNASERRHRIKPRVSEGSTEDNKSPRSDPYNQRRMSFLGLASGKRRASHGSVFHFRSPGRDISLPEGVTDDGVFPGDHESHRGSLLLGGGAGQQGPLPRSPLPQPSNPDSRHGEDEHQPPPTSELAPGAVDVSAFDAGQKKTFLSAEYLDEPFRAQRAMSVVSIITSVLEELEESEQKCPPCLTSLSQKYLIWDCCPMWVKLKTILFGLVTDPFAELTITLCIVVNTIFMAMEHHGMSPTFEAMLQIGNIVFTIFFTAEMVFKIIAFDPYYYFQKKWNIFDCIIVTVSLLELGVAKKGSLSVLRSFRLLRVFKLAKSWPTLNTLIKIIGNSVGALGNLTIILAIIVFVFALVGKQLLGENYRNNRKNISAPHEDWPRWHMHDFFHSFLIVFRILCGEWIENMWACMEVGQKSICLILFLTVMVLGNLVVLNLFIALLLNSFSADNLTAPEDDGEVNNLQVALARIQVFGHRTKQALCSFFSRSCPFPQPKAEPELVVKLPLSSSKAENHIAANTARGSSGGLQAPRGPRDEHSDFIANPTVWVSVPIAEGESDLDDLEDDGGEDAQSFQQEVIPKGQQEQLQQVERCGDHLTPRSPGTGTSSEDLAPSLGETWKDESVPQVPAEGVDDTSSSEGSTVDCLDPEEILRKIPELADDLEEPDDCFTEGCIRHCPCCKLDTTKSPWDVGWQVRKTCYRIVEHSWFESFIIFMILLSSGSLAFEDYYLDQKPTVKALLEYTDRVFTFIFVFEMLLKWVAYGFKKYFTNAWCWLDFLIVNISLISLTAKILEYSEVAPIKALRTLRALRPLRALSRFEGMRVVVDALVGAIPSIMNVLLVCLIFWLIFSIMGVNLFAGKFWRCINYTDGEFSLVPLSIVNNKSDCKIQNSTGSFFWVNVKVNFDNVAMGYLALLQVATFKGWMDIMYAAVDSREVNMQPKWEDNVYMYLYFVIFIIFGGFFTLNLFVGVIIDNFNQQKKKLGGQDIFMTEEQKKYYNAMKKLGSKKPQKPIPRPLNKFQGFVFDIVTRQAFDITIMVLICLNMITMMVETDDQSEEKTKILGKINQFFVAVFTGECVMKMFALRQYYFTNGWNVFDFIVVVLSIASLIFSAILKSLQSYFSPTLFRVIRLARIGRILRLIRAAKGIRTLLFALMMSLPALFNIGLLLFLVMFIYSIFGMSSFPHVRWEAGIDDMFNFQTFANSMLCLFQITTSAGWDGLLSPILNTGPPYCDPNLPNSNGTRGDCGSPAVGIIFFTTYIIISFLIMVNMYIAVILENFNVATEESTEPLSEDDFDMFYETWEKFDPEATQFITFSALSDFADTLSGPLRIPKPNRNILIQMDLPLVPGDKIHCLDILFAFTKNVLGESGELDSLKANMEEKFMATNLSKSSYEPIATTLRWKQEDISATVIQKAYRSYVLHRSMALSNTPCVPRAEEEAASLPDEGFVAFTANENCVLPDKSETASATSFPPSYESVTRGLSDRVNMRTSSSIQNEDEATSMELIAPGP
NaV1.3, sequence (Q9NY46 whole entry, looked up): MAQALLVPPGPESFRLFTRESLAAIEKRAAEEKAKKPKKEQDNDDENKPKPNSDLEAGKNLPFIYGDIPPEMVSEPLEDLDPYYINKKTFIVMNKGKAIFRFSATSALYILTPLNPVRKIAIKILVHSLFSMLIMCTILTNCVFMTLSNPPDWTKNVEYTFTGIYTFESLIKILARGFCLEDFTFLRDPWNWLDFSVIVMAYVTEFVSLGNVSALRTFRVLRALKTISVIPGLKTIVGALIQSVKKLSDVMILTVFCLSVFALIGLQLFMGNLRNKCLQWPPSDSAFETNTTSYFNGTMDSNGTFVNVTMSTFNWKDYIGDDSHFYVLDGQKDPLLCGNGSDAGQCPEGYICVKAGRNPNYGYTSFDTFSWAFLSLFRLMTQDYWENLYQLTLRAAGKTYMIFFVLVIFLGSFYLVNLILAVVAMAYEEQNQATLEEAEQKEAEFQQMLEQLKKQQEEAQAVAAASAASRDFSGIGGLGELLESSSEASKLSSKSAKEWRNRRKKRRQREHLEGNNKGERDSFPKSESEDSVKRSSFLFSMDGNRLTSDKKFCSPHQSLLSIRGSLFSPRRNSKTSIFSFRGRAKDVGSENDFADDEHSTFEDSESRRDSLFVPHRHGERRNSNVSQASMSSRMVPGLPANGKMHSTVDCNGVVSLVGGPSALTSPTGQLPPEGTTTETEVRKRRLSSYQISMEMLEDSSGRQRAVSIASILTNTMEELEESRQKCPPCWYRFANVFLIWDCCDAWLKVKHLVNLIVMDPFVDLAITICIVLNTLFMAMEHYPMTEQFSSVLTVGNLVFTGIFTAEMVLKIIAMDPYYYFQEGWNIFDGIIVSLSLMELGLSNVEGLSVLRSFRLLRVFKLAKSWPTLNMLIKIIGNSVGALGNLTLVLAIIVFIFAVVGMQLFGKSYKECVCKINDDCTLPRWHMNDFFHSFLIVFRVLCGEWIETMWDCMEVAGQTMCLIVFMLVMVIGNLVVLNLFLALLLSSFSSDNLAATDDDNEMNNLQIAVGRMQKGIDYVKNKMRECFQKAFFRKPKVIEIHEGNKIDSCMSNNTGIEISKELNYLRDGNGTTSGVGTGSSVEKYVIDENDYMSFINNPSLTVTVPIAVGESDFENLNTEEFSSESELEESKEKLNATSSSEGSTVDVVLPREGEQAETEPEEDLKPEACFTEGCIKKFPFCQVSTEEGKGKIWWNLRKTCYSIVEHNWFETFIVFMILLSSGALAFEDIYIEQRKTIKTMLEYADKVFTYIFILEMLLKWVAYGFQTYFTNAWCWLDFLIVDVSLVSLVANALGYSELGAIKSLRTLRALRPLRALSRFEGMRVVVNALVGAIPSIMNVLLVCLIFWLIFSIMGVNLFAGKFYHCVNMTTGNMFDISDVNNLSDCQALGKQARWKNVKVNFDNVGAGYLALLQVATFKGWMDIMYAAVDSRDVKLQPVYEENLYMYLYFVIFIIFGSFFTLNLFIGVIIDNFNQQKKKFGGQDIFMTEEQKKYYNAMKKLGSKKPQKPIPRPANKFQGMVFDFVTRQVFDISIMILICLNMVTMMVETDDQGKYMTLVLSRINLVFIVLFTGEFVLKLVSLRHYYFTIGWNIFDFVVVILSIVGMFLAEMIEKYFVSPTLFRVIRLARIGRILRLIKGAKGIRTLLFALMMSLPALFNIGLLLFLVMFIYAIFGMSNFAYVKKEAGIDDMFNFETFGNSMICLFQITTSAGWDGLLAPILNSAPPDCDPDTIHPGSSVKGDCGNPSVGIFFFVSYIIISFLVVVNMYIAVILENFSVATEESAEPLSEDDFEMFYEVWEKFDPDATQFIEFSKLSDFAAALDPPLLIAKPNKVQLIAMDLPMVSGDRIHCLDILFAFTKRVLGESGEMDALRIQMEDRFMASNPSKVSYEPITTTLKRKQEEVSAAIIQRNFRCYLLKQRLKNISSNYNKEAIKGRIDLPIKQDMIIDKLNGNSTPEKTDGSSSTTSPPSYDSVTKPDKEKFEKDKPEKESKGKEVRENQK

Regarding `NC1=N[C@H](O)[C@H]2[C@H]3O[C@]4(O)O[C@@H]([C@@H](O)[C@@]2(N1)[C@@H]4O)[C@]3(O)CO` [TTX, tetrodotoxin], the IC50 is 15 nM at NaV1.3 and above 50000 nM on NaV1.8.
With `NCC1(CC(=O)O)CCCCC1` [Gabapentin], the “share of patients in which the drug works” value in data set [1] is 60%.
